How the values were obtained:
[1] = test system: luciferase (Luc) mRNA expression; experiment: Luc expression (total flux, bioluminescence) after intravenous administration to mice; type: in vivo; details: i.v., 0.5 mg/kg, 3, 6 and 24 hours, versus other compositions
Experimental: In order to monitor how effectively various nanoparticle compositions deliver therapeutic and/or prophylactics to targeted cells, different nanoparticle compositions including a particular therapeutic and/or prophylactic (for example, a modified or naturally occurring RNA such as an mRNA) are prepared and administered to rodent populations. Mice are intravenously, intramuscularly, intraarterially, or intratumorally administered a single dose including a nanoparticle composition with a formulation such as those provided in Example 3. In some instances, mice may be made to inhale doses. Dose sizes may range from 0.001 mg/kg to 10 mg/kg, where 10 mg/kg describes a dose including 10 mg of a therapeutic and/or prophylactic in a nanoparticle composition for each 1 kg of body mass of the mouse. A control composition including PBS may also be employed.
Upon administration of nanoparticle compositions to mice, dose delivery profiles, dose responses, and toxicity of particular formulations and doses thereof can be measured by enzyme-linked immunosorbent assays (ELISA), bioluminescent imaging, or other methods. For nanoparticle compositions including mRNA, time courses of protein expression can also be evaluated. Samples collected from the rodents for evaluation may include blood, sera, and tissue (for example, muscle tissue from the site of an intramuscular injection and internal tissue); sample collection may involve sacrifice of the animals.
The efficacy of the nanoparticle compositions presented in Table 1A was evaluated with a bioluminescence study. Formulations were administered intravenously to mice (n=6) at a dosage of 0.5 mg/kg (mpk) and bioluminescence measured at 3, 6, and 24 hour time points. The standard MC3 formulation and, in some instances, a control (e.g., a PBS control) were evaluated for comparison. […] In general, flux decreased as time progressed to less than 10% of the initial flux.
The total flux (measured by area under the curve, AUC) induced by administration of a formulation including a given lipid relative to that induced by administration of a formulation including MC3 was also measured for several lipids.

[2] = Particle size, polydispersity index (and zeta potential) of nanoparticle compositions, Zetasizer Nano ZS; type: physicochemical; details: Table 1A; lipid:DSPC:cholesterol:PEG-DMG 50:10:38.5:1.5 mol %, mRNA
Excerpt: Nanoparticle compositions may be characterized by a variety of methods. For example, microscopy (e.g., transmission electron microscopy or scanning electron microscopy) may be used to examine the morphology and size distribution of a nanoparticle composition. Dynamic light scattering or potentiometry (e.g., potentiometric titrations) may be used to measure zeta potentials. Dynamic light scattering may also be utilized to determine particle sizes. Instruments such as the Zetasizer Nano ZS (Malvern Instruments Ltd, Malvern, Worcestershire, UK) may also be used to measure multiple characteristics of a nanoparticle composition, such as particle size, polydispersity index, and zeta potential.
A Zetasizer Nano ZS (Malvern Instruments Ltd, Malvern, Worcestershire, UK) can be used to determine the particle size, the polydispersity index (PDI) and the zeta potential of the nanoparticle compositions in 1×PBS in determining particle size and 15 mM PBS in determining zeta potential.

[3] = Encapsulation efficiency of RNA, QUANT-IT RIBOGREEN RNA assay; type: physicochemical; details: Table 1A formulations
Excerpt: The efficiency of encapsulation of a therapeutic and/or prophylactic describes the amount of therapeutic and/or prophylactic that is encapsulated or otherwise associated with a nanoparticle composition after preparation, relative to the initial amount provided. The encapsulation efficiency is desirably high (e.g., close to 100%). The encapsulation efficiency may be measured, for example, by comparing the amount of therapeutic and/or prophylactic in a solution containing the nanoparticle composition before and after breaking up the nanoparticle composition with one or more organic solvents or detergents. Fluorescence may be used to measure the amount of free therapeutic and/or prophylactic (e.g., RNA) in a solution. For the nanoparticle compositions described herein, the encapsulation efficiency of a therapeutic and/or prophylactic may be at least 50%, for example 50%, 55%, 60%, 65%, 70%, 75%, 80%, 85%, 90%, 91%, 92%, 93%, 94%, 95%, 96%, 97%, 98%, 99%, or 100%. In some embodiments, the encapsulation efficiency may be at least 80%. In certain embodiments, the encapsulation efficiency may be at least 90%.
For nanoparticle compositions including an RNA, a QUANT-IT™ RIBOGREEN® RNA assay (Invitrogen Corporation Carlsbad, Calif.) can be used to evaluate the encapsulation of an RNA by the nanoparticle composition. The samples are diluted to a concentration of approximately 5 μg/mL in a TE buffer solution (10 mM Tris-HCl, 1 mM EDTA, pH 7.5). 50 μL of the diluted samples are transferred to a polystyrene 96 well plate and either 50 μL of TE buffer or 50 μL of a 2% Triton X-100 solution is added to the wells. The plate is incubated at a temperature of 37° C. for 15 minutes. The RIBOGREEN® reagent is diluted 1:100 in TE buffer, and 100 μL of this solution is added to each well. The fluorescence intensity can be measured using a fluorescence plate reader (Wallac Victor 1420 Multilablel Counter; Perkin Elmer, Waltham, Mass.) at an excitation wavelength of, for example, about 480 nm and an emission wavelength of, for example, about 520 nm. The fluorescence values of the reagent blank are subtracted from that of each of the samples and the percentage of free RNA is determined by dividing the fluorescence intensity of the intact sample (without addition of Triton X-100) by the fluorescence value of the disrupted sample (caused by the addition of Triton X-100).

| SMILES | flux at all time points measured [1] | Size (nm) [2] [nm] | EE (%) [3] [%] |
| --- | --- | --- | --- |
| CCCCCCCCCOC(=O)CCCCCCCN(CCCCCCCC(=O)OC(CCCCCCCC)CCCCCCCC)CCOC(C)=O [Compound 9, Heptadecan-9-yl 8-((2-acetoxyethyl)(8-(nonyloxy)-8-oxooctyl)amino) octanoate] | significantly lower flux |  |  |
| CCCCCCCCCOC(=O)CCCCCCCN(CCCCCCCC(=O)OC(CCCCCCCC)CCCCCCCC)CCOCCN(C)C [Compound 17, Heptadecan-9-yl 8-((2-(2-(dimethylamino)ethoxy)ethyl)(8-(nonyloxy)-8-oxooctyl)amino)octanoate] | significantly lower flux |  |  |
| CCCCCCCCCOC(=O)CCCCCCCN(CCO)CCCCCCCC(=O)OC(CCCC)CCCC [Compound 57, nonan-5-yl 8-((2-hydroxyethyl)(8-(nonyloxy)-8-oxooctyl)amino) octanoate] | significantly lower flux |  |  |
| CCCCCCCCCOC(=O)CCCCCCCN(CCO)CCCCCCCC(=O)OC(CCC)CCC [Compound 58, heptan-4-yl 8-((2-hydroxyethyl)(8-(nonyloxy)-8-oxooctyl)amino) octanoate] | significantly lower flux |  |  |
| CCCCCCCCCOC(=O)CCCCCCCN(CCO)CCCCCCCC(=O)OC(CC)CC [Compound 59, nonyl 8-((2-hydroxyethyl)(8-oxo-8-(pentan-3-yloxy)octyl)amino) octanoate] | significantly lower flux |  |  |
| CCCCCCCCCOC(=O)CCCCCCCN(CCCCCCCC(=O)OC(CCCCCCCC)CCCCCCCC)CCC(=O)O [Compound 125, 3-((8-(Heptadecan-9-yloxy)-8-oxooctyl)(8-(nonyloxy)-8-oxooctyl)amino)propanoic acid] | significantly lower flux |  |  |
| CCCCCCCCCCCCN(CCO)CCCCCCCCCCCC(=O)OC [Compound 137, Methyl 12-(dodecyl(2-hydroxyethyl)amino)dodecanoate] | significantly lower flux | 184.4 | 85.7 |
| CCCCCCCC/C=C\COC(=O)CCCCCN(CCO)CCCCCC(=O)OC/C=C\CCCCCCCC [Compound 140, Di((Z)-undec-2-en-1-yl) 6,6′-((2-hydroxyethyl)azanediyl)dihexanoate] | significantly lower flux |  |  |
| CCCCCCCCCCCOC(=O)CCCCCN(CCO)CCCCCC(=O)OCCCCCCCCCCC [Compound 141, Diundecyl 6,6′-((2-hydroxyethyl)azanediyl)dihexanoate] | significantly lower flux |  |  |
| CCCCCCCCCOC(=O)CCCCCCCN(CCO)CCCCCCCC(=O)OC(C)(C)C [Compound 158, tert-Butyl 8-((2-hydroxyethyl)(8-(nonyloxy)-8-oxooctyl)amino)octanoate] | significantly lower flux |  |  |
